Reference: patent US9102648B1, “Bioavailable diacylhydrazine ligands for modulating the expression of exogenous genes via an ecdysone receptor complex” (Intrexon Corporation, priority 2003, dated 2015)
Read-outs that look alike come from different tables or passages of the source.

What was measured:
[1] = molecular target: GAL4 DBD-CfEcR(DEF)/VP16AD-MmRXRE (Choristoneura fumiferana, UniProt O77240); test: 13B3 Assay (CHO stable cell line, luciferase reporter); settings: for Fold Induction, 13B3 Assay, 3.3 uM: 3.3 uM ligand; for Fold Induction, 13B3 Assay, 3.3 uM / Fold Induction, 13B3 Assay, 33 uM: RLU ligand treated / RLU DMSO treated cells; for Fold Induction, 13B3 Assay, 33 uM: 33 uM ligand; for 13B3 assay Rel Max FI: maximum fold induction at any concentration relative to that of GS-E ligand, CHO 13B3 cells; for fold induction at 3.3 µM: read-out: Fold Induction, 13B3 Assay, 3.3 uM; for fold induction at 33 µM: read-out: Fold Induction, 13B3 Assay, 33 uM
Procedure, shortened: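 CHO 13B3 clone stably expressing GAL4 DBD–CfEcR(DEF) and VP16AD–MmRXR(DE) with GAL4 RE–luciferase reporter; cells plated 24 h at 37 °C, then treated with ligands (DMSO stocks diluted 300-fold), 8 concentrations 33–0.01 μM.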

[2] = molecular target: T1, Bombyx mori EcR (VP16 fusion, CVBE switch construct) (Bombyx mori, UniProt P49881); test: Z3 Assay (HEK-293 cells with CVBE and 6XEcRE LacZ, β-galactosidase reporter); settings: for Fold Induction, Z3 Assay, 3.3 uM: 3.3 uM ligand; for Fold Induction, Z3 Assay, 3.3 uM / Fold Induction, Z3 Assay, 33 uM: ligand treated / DMSO treated cells; for Fold Induction, Z3 Assay, 33 uM: 33 uM ligand; for Z3 assay Rel Max FI: maximum fold induction at any concentration relative to that of GS-E ligand; for fold induction at 3.3 µM: HEK293, read-out: Fold Induction, Z3 Assay, 3.3 uM; for fold induction at 33 µM: HEK293, read-out: Fold Induction, Z3 Assay, 33 uM
T1 sequence (P49881 86-606): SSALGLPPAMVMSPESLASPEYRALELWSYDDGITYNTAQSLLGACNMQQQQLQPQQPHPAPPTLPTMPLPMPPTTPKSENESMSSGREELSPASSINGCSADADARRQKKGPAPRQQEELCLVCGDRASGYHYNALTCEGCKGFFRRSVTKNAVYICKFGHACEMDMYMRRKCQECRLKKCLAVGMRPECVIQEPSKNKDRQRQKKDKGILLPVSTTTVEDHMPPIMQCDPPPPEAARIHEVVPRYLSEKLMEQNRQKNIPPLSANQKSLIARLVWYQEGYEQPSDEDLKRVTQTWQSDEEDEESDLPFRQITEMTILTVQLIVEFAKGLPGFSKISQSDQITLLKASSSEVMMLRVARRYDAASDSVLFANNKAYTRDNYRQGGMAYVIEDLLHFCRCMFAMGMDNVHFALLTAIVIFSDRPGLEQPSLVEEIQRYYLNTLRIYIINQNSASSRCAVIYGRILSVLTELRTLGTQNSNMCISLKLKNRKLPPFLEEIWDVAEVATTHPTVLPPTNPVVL
T1 sequence (P19793 1-462 partner): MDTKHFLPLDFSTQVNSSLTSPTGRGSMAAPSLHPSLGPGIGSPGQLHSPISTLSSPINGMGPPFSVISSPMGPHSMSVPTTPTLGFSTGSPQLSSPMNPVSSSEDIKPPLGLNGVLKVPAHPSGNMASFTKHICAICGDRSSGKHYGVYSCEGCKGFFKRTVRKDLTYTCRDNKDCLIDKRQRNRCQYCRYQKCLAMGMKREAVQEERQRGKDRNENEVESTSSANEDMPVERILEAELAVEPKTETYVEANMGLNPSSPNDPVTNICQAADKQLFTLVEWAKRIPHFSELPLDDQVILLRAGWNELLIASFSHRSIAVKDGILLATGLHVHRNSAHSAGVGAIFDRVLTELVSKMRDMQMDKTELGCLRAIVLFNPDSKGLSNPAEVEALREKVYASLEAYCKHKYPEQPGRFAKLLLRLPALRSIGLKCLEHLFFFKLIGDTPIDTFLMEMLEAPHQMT

[3] = read-out: 13B3 EC50, CHO 13B3 stable cell line, luciferase reporter, 48 h, average of two wells
[4] = read-out: Z3 assay EC50, HEK-293 Z3 cells, β-galactosidase reporter, average of two wells

SMILES | Fold Induction, 13B3 Assay, 3.3 uM ([1]; average of two wells) | Fold Induction, 13B3 Assay, 33 uM ([1]; average of two wells) | 13B3 assay Rel Max FI [1] | EC50 [1, 3] [nM] | Fold Induction, Z3 Assay, 3.3 uM ([2]; average of two wells) | Fold Induction, Z3 Assay, 33 uM ([2]; average of two wells) | Z3 assay Rel Max FI ([2]; HEK-293 Z3 cells) | EC50 [2, 4] [nM] | EC50 [1] [nM] | fold induction at 3.3 µM [1] | fold induction at 33 µM [1] | EC50 [2] [nM] | fold induction at 3.3 µM [2] | fold induction at 33 µM [2]
CCc1c(C(=O)NN(C(=O)c2ccc(Cl)cc2F)C(C)(C)C)ccc2c1OCCO2 [RG-115514] | 4009 | 515 | 0.550 | 541 | 383 | 658 | 0.970 | 56 | – | – | – | – | – | –
CCc1c(C(=O)NN(C(=O)c2cccc(OC)c2)C(C)(C)C)ccc2c1OCCO2 [RG-100691] | – | 643 | – | – | 843 | 565 | 0.945 | 257 | – | – | – | – | – | –
COc1cc(C(=O)N(NC(=O)c2ccc3c(c2C)OCCO3)C(C)(C)C)cc(OC)c1O [RG-115009, 4-Hydroxy-3,5-dimethoxy-benzoic acid N-tert-butyl-N′-(5-methyl-2,3-dihydro-benzo[1,4]dioxine-6-carbonyl)-hydrazide] | – | – | 0.917 | – | – | – | 0.916 | – | 18900 | 19 | 2550 | 3310 | 35 | 472
CCC(N(NC(=O)c1cccc(OC)c1C)C(=O)c1cc(C)cc(C)c1)C(C)(C)C (stereo not shown) [RG-115819, 3,5-dimethyl-benzoic acid N-(1-ethyl-2,2-dimethyl-propyl)-N′-(3-methoxy-2-methyl-benzoyl)-hydrazide] | – | – | – | – | – | – | 0.915 | – | – | – | – | 42 | 1430 | 722
CCc1c(OC)cccc1C(=O)NN(C(=O)c1cc(C)cc(C)c1)C(C)(C)CO [RG-115143] | 1 | 2032 | 0.651 | > 50000 | 111 | 1045 | 0.844 | 7410 | – | – | – | – | – | –
Cc1c(C(=O)NN(C(=O)c2ccc(F)cc2)C(C)(C)C)ccc2c1OCO2 [RG-100448] | – | 2 | – | – | – | 423 | – | 2820 | – | – | – | – | – | –
CCOC(=O)C(C)(C)N(NC(=O)c1cccc(OC)c1CC)C(=O)c1cc(C)cc(C)c1 [RG-115025, 2-[N-(3,5-dimethyl-benzoyl)-N′-(2-ethyl-3-methoxy-benzoyl)-hydrazino]-2-methyl-propionic acid ethyl ester] | – | – | 0.186 | – | – | – | 0.385 | – | 39300 | 8 | 1700 | 347 | 269 | 489
CCc1c(C(=O)NN(C(=O)c2cc(C)cc(Cl)c2)C(C)(C)C)ccc2c1OCCO2 [RG-101494, N-(5-ethyl-1,4-benzodioxan-6-carbonyl)-N′-(tert-butyl)-N′-(3-chloro-5-methylbenzoyl)hydrazine] | – | – | 0.822 | – | – | – | 1.093 | – | 148 | 755 | 613 | 79 | 832 | 384
CCc1c(OC)cccc1C(=O)NN(C(=O)c1cc(C)cc(C)c1)C(C)(C)C(=O)O [RG-115044, 2-[N-(3,5-Dimethyl-benzoyl)-N′-(2-ethyl-3-methoxy-benzoyl)-hydrazino]-2-methyl-propionic acid] | – | – | 0.87 | – | – | – | 1.08 | – | > 50000 | – | 1 | > 50000 | 1 | 7
Cc1ccc(F)c(C(=O)N(NC(=O)c2ccc3c(c2C)CCCO3)C(C)(C)C)c1 [RG-115499] | 1182 | 731 | 0.489 | 328 | 173 | 641 | 0.954 | 170 | – | – | – | – | – | –
CCc1c(C(=O)NN(C(=O)c2ccccc2)C(C)(C)C)ccc2c1OCOC2 [RG-115046] | – | 1076 | – | – | – | 754 | – | 3550 | – | – | – | – | – | –
